In PubChem BioAssay AID720632 (Broad Institute, 2013):
Activity calls are given as the source filed them. The rule behind the calls is not given here.

Target: Caspase-6 (Homo sapiens) (UniProt P55212)
Experiment: inhibition of CASP6 peptide cleavage – biochemical, VEID-R110 fluorescence, cherry-pick, dose response (AID 720632)
Conditions: caspase-6, VEID-R110 fluorogenic substrate

Chain of Caspase-6 (Homo sapiens) (P55212 24-179 limits assumed): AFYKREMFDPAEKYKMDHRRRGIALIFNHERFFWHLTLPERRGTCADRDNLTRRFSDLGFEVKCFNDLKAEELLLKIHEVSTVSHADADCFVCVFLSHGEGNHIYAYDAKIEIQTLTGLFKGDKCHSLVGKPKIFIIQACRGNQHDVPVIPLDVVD
Chain of Caspase-6 (Homo sapiens) (P55212 194-293 limits assumed): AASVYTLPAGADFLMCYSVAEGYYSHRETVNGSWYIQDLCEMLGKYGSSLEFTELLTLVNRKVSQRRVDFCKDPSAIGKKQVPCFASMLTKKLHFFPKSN

## O=C(Nc1cccc(C(=O)N2CCOCC2)c1)c1ccc([N+](=O)[O-])cc1
At 26 µM (top of the series)
  activity change, negative = inhibition: inactive

## O=C1CC(N2CCSCC2)C(=O)N1c1cccc(Cl)c1 (stereo not given)
At 26 µM (top of the series)
  activity change, negative = inhibition: inactive

## OC(CNC1CCCCC1)COCCOc1ccc(Br)cc1 (stereo not given)
At 26 µM (top of the series)
  activity change, negative = inhibition: inactive

## CO[C@@H]1CN(C)C(=O)c2ccc(NC(=O)C3CC3)cc2OC[C@H](C)N(Cc2cccc(F)c2)C[C@H]1C
At 26 µM (top of the series)
  activity change, negative = inhibition: inactive

## N/C(Cc1cccc2ccccc12)=N\OC(=O)c1ccccc1F
At 26 µM (top of the series)
  activity change, negative = inhibition: inactive

## CC(C)OCCCNC(=O)c1c(N)n(CC2CCCO2)c2nc3ccccc3nc12 (stereo not given)
At 26 µM (top of the series)
  activity change, negative = inhibition: inactive

## COc1ccc(-n2c(NNC(C)=O)nc3sc4c(c3c2=O)CCCC4)cc1
At 26 µM (top of the series)
  activity change, negative = inhibition: inactive

## O=C(N/N=C/C1CC=CCC1)c1ccc(Cl)cc1O (stereo not given)
At 26 µM (top of the series)
  activity change, negative = inhibition: inactive

## CCC(=O)Nc1ccc2c(c1)OC[C@H](C)N(C(=O)CC)C[C@H](C)[C@H](OC)CN(C)C2=O
At 26 µM (top of the series)
  activity change, negative = inhibition: inactive

## COCCNc1nc(-c2ccc(OC)cc2)c(-c2ccc(OC)cc2)s1
At 26 µM (top of the series)
  activity change, negative = inhibition: inactive

## CSc1ccccc1OCc1cc(C(=O)N2CCc3c(Cl)cccc3C2)no1
At 26 µM (top of the series)
  activity change, negative = inhibition: inactive

## CN(CC(=O)Nc1ccccc1Cl)C(=O)COC(=O)c1cccs1
At 26 µM (top of the series)
  activity change, negative = inhibition: inactive

## CCCCCc1ccc(CC(=O)N2CCOCC2)cc1
At 26 µM (top of the series)
  activity change, negative = inhibition: inactive

## O=C(N/N=C/c1ccc([N+](=O)[O-])o1)c1ccccc1NS(=O)(=O)c1cccs1
At 26 µM (top of the series)
  activity change, negative = inhibition: inactive

## COCCn1c(SCCN2CCOCC2)nc2c1c(=O)[nH]c(=O)n2C
At 26 µM (top of the series)
  activity change, negative = inhibition: inactive

## Cc1cc(C)cc(N(CC(=O)N2CCCCCC2)S(C)(=O)=O)c1
At 26 µM (top of the series)
  activity change, negative = inhibition: inactive

## CCC(=O)N1CCC1(C)C(=O)Nc1ccc2c(c1)CCN2C(C)=O (stereo not given)
At 26 µM (top of the series)
  activity change, negative = inhibition: inactive

## CCCN1C[C@H](C)[C@@H](OC)CN(C)C(=O)c2ccc(NC(=O)c3ccccc3)cc2OC[C@H]1C
At 26 µM (top of the series)
  activity change, negative = inhibition: inactive

## COc1cc(Br)cc(CN2CCN(C/C=C/c3ccccc3)CC2)c1O
At 26 µM (top of the series)
  activity change, negative = inhibition: inactive

## C/C(=N/NS(=O)(=O)c1ccc(Cl)cc1)c1cccc(NC(=O)c2ccncc2)c1
At 26 µM (top of the series)
  activity change, negative = inhibition: inactive

## CCCCn1c(N)c(N(CCC(C)C)C(=O)COC(=O)c2ccc([N+](=O)[O-])s2)c(=O)[nH]c1=O
At 26 µM (top of the series)
  activity change, negative = inhibition: inactive

## CN1N=C(C(C)(C)C)CSC1=Nc1ccccc1
At 26 µM (top of the series)
  activity change, negative = inhibition: inactive

## CCN(CC)C(=O)COc1ccc(/C(C)=N/NC(=O)c2ccccc2O)cc1
At 26 µM (top of the series)
  activity change, negative = inhibition: inactive

## O=C(O)c1ccc2nnn(O)c2c1
At 26 µM (top of the series)
  activity change, negative = inhibition: inactive

## CN1CCCCC(NC(=O)COCc2ccccc2)C1=O (stereo not given)
At 26 µM (top of the series)
  activity change, negative = inhibition: inactive

## Cc1nc2ccccc2c(=O)n1-c1ccc(NS(=O)(=O)c2ccc(F)cc2F)cc1
At 26 µM (top of the series)
  activity change, negative = inhibition: inactive

## O=C(NNS(=O)(=O)c1ccc(F)cc1)c1ccccc1F
At 26 µM (top of the series)
  activity change, negative = inhibition: inactive

## COc1ccc(C(=O)N2CCN(CCCc3ccccc3)CC2)cc1OC
At 26 µM (top of the series)
  activity change, negative = inhibition: inactive

## O=C(O)C[C@H]1CC[C@H]2[C@@H](COC[C@H](O)CN2S(=O)(=O)c2ccc(Oc3ccccc3)cc2)O1
At 26 µM (top of the series)
  activity change, negative = inhibition: inactive

## CO[C@H]1CN(C)C(=O)c2ccc(NC(=O)C3CC3)cc2OC[C@@H](C)N(Cc2ccccc2)C[C@H]1C
At 26 µM (top of the series)
  activity change, negative = inhibition: inactive

## CC(=O)N1CCc2c(sc(NC(=O)Cc3ccccc3)c2C(N)=O)C1
At 26 µM (top of the series)
  activity change, negative = inhibition: inactive

## CC(=O)c1ccc(S(=O)(=O)N2CCN(C(=O)c3ccc(-n4cncn4)c([N+](=O)[O-])c3)CC2)cc1
At 26 µM (top of the series)
  activity change, negative = inhibition: inactive

## CCCN1C[C@@H](C)[C@@H](OC)CN(C)C(=O)c2ccc(NC(=O)CC)cc2OC[C@H]1C
At 26 µM (top of the series)
  activity change, negative = inhibition: inactive

## CC(C)NC(=O)C1(C)CCN1C(=O)c1ccc2c(c1)OCO2 (stereo not given)
At 26 µM (top of the series)
  activity change, negative = inhibition: inactive

## CCN(C(=O)COC(=O)CNC(=O)c1ccc2ccccc2c1)C1CCS(=O)(=O)C1 (stereo not given)
At 26 µM (top of the series)
  activity change, negative = inhibition: inactive

## O=C(Oc1ccc(Nc2ncnc3ccccc23)cc1)c1cccnc1
At 26 µM (top of the series)
  activity change, negative = inhibition: inactive

## CO[C@H]1CN(C)C(=O)c2ccc(NC(=O)c3ccccc3)cc2OC[C@@H](C)N(C(=O)C2CC2)C[C@@H]1C
At 26 µM (top of the series)
  activity change, negative = inhibition: inactive

## COc1ccc(NS(=O)(=O)c2cc(NC(=O)[C@H](C)NC(N)=O)ccc2N2CCCC2)cc1
At 26 µM (top of the series)
  activity change, negative = inhibition: inactive

## CO[C@H]1CN(C)C(=O)c2ccc(NC(=O)c3ccccc3)cc2OC[C@H](C)N(C(=O)C2CC2)C[C@H]1C
At 26 µM (top of the series)
  activity change, negative = inhibition: inactive

## Cc1ccc(S(=O)(=O)n2c(C)nc3ccccc32)cc1
At 26 µM (top of the series)
  activity change, negative = inhibition: inactive

## CSCCC(NC(=O)COc1ccccc1)C(=O)N(C)CC(=O)Nc1c(C)cccc1C (stereo not given)
At 26 µM (top of the series)
  activity change, negative = inhibition: inactive

## CCC(=O)N1C[C@H](C)[C@H](OC)CN(C)C(=O)c2ccc(NC(=O)c3ccccc3)cc2OC[C@H]1C
At 26 µM (top of the series)
  activity change, negative = inhibition: inactive

## O=C1[C@H]2[C@@H](c3ccccc3)N[C@]3(CCCN(CC4CCCCC4)C3=O)[C@H]2C(=O)N1Cc1ccccc1
At 26 µM (top of the series)
  activity change, negative = inhibition: inactive

## O=C(NCCc1ccccc1)c1cccc2c(-c3ccc(F)c(F)c3)coc12
At 26 µM (top of the series)
  activity change, negative = inhibition: inactive

## O=C(NC(=C(Cl)Cl)S(=O)(=O)c1ccc(Cl)cc1)c1ccccc1
At 26 µM (top of the series)
  activity change, negative = inhibition: inactive

## CO[C@H]1CN(C)C(=O)c2ccc(NC(=O)C3CC3)cc2OC[C@@H](C)N(CC2CCOCC2)C[C@@H]1C
At 26 µM (top of the series)
  activity change, negative = inhibition: inactive

## Oc1c(CN2CCCCC2)ccc2cccnc12
At 26 µM (top of the series)
  activity change, negative = inhibition: inactive

## COC(=O)c1ccc(COc2cc([N+](=O)[O-])cc3cccnc23)o1
At 26 µM (top of the series)
  activity change, negative = inhibition: inactive

## N#C[C@@H]1[C@H](c2ccc(C3=CCCCC3)cc2)[C@@H](CO)N1S(=O)(=O)c1ccccc1
At 23.5 µM (top of the series)
  activity change, negative = inhibition: inactive

## CCCC(=O)Nc1ccc2c(c1)OC[C@H](C)N(Cc1ccc(F)cc1)C[C@@H](C)[C@H](OC)CN(C)C2=O
At 26 µM (top of the series)
  activity change, negative = inhibition: inactive

## CC(C)(C)NC(=O)C1CCN(S(=O)(=O)c2cccc3nsnc23)CC1
At 26 µM (top of the series)
  activity change, negative = inhibition: inactive

## COCC(=O)Nc1ccc2c(c1)OC[C@H](C)N(CC1CC1)C[C@@H](C)[C@@H](OC)CN(C)C2=O
At 26 µM (top of the series)
  activity change, negative = inhibition: inactive

## O=C([C@H]1[C@H](CO)[C@H]2Cn3c(cccc3=O)[C@H]2N1Cc1ccccn1)N1CCC(Cc2ccccc2)CC1
At 26 µM (top of the series)
  activity change, negative = inhibition: inactive

## O=C(CCCn1c(=S)[nH]c2cc3c(cc2c1=O)OCO3)N1CCN(c2ccc(F)cc2)CC1
At 26 µM (top of the series)
  activity change, negative = inhibition: inactive

## O=S(=O)(c1cccc2cccnc12)N1CCN(c2ccc(F)cc2)CC1
At 26 µM (top of the series)
  activity change, negative = inhibition: inactive

## O=C(C[C@H]1C=C[C@H](NC(=O)c2ccccc2)[C@H](CO)O1)NCCc1ccncc1
At 26 µM (top of the series)
  activity change, negative = inhibition: inactive

## CCN(CC)C1CCN(Cc2c(C(=O)N3CCCCCCC3)nc3ccc(Cl)cn23)C1 (stereo not given)
At 26 µM (top of the series)
  activity change, negative = inhibition: inactive

## O=C(NC[C@@H]1CC[C@@H]2[C@@H](CN2S(=O)(=O)c2ccccc2[N+](=O)[O-])O1)C1CCOCC1
At 8 µM (top of the series)
  activity change, negative = inhibition: inactive

## CCN(CC)c1nc(N)c2c(N)nc(OC)cc2c1C#N
At 26 µM (top of the series)
  activity change, negative = inhibition: inactive

## C=CCNC(=O)COc1ccccc1C#N
At 26 µM (top of the series)
  activity change, negative = inhibition: inactive
